Values of other authors as cited in patent US7196084B2, “Cdc25 phosphatase inhibitors” (Societe de Conseils de Recherches et d'Applications …, priority 2000, dated 2007).

Tests used:
cdc25-A = biological target: T1, cdc25-A (Homo sapiens, UniProt P30304); conditions: read-out: inhibition constant (Ki) on cdc25-A; cited from earlier work
T1 sequence (P30304 1-524): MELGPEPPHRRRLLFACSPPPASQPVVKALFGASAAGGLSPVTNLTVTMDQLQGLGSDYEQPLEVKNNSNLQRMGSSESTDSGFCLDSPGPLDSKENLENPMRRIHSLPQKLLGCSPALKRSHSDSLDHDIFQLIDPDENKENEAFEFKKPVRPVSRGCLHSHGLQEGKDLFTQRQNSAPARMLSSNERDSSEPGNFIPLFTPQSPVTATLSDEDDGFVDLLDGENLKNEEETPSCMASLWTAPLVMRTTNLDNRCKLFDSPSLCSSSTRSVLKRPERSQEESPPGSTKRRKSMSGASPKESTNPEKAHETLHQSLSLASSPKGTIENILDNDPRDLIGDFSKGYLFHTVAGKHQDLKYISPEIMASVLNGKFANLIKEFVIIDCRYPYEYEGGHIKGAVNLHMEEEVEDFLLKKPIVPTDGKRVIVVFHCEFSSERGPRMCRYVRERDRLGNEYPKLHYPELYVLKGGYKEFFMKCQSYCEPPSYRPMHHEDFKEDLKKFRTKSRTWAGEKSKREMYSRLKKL

cdc25-B2 = biological target: T2, cdc25-B2 (Homo sapiens, UniProt P30305); conditions: read-out: inhibition constant (Ki) on cdc25-B2; cited from earlier work
T2 sequence (P30305 1-539 isoform P30305-3): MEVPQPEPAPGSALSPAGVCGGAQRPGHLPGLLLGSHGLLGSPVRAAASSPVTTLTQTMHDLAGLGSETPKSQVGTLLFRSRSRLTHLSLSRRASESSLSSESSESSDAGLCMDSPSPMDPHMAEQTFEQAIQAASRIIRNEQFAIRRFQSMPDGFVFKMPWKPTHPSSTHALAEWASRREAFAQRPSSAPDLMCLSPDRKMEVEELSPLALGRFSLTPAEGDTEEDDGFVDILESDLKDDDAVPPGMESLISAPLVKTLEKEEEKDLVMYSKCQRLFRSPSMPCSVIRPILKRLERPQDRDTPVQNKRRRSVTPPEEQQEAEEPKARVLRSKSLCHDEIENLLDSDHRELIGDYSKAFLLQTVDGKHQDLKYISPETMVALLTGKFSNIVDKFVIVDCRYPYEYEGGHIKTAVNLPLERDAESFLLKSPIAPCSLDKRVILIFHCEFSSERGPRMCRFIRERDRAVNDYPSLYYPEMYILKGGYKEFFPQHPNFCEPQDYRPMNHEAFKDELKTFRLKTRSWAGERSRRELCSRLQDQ

cdc25-C = biological target: T3, cdc25-C (Homo sapiens, UniProt P30307); conditions: read-out: inhibition constant (Ki) on cdc25-C; cited from earlier work
T3 sequence (P30307 1-473): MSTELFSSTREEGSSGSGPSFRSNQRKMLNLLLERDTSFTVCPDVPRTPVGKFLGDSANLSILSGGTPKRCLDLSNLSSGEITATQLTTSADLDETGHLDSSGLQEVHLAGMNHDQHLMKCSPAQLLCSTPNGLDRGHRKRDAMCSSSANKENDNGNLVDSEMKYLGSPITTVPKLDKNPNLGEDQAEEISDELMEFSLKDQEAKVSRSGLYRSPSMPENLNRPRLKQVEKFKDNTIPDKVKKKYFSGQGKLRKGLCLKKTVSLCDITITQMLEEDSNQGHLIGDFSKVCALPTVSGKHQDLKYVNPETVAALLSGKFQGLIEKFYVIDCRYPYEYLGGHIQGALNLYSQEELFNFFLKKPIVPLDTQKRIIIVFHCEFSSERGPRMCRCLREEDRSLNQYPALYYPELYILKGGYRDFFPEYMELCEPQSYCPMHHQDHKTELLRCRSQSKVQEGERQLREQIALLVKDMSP

For `CC1=C(SCCO)C(=O)c2ccccc2C1=O` [Cpd5], the Ki (cdc25-A) is given as 15000 nM, the Ki (cdc25-B2) is given as 1700 nM and the Ki (cdc25-C) is given as 1300 nM.
